# Assay results as given in patent US20070066627A1, “Hydrazone derivatives for combatting harmful insects and arachnids” (priority 2004, published 2007).
# Test system: Green Peach Aphid (Myzus persicae)
# Assay: Green peach aphid test on pepper plants
# Assay type: in vivo
# Conditions: 120 h, leaves dipped, after 5 days, read-out: mortality in comparison with untreated controls
# Description: 2.3 Green Peach Aphid (Myzus persicae)
# (§1) The active compounds were formulated in 50:50 acetone:water and 100 ppm Kinetic® surfactant.
# Pepper plants in the 2nd leaf-pair stage (variety ‘California Wonder’) were infested with approximately 40 laboratory-reared aphids by placing infested leaf sections on top of the test plants. The leaf sections were removed after 24 hr. The leaves of the intact plants were dipped into gradient solutions of the test compound and allowed to dry.
# Test plants were maintained under fluorescent light (24 hour photoperiod) at about 25° C. and 20-40% relative humidity. Aphid mortality on the treated plants, relative to mortality on check plants, was determined after 5 days.
row,Structure (SMILES),mortality at 300 ppm [%]
1,O=C(NN=CC=Cc1ccccc1F)c1ccccc1F [Compound 197],> 75
2,CC(C=NNC(=O)c1cc(C)nn1C)=Cc1ccccc1 [Compound 152],> 75
3,CC(C=NNC(=O)c1ccncc1)=Cc1cccc(F)c1 [Compound 173],> 75
4,COc1ccc(CC(=O)NN=CC(C)=Cc2ccc(F)cc2)cc1OC [Compound 20],> 75
5,CC(C=NNC(=O)c1cccc(Cl)n1)=Cc1cccc(F)c1 [Compound 397],> 75
6,O=C(NN=CC(Cl)=Cc1ccccc1)c1ccccc1F [Compound 195],> 75
7,CC(C=NNC(=O)Cc1ccccc1)=Cc1cccc(F)c1 [Compound 19],> 75
8,CC(C=NNC(=O)c1ccco1)=Cc1ccc(Cl)cc1 [Compound 128],> 75
9,CC(C=NNC(=O)c1cccc(F)n1)=Cc1ccccc1 [Compound 400],> 75
10,CC(C=NNC(=O)c1cc(F)ccc1F)=Cc1ccccc1C [Compound 204],> 75
11,CC(C=NNC(=O)c1ccc(F)cc1F)=Cc1ccccc1F [Compound 321],> 75
12,CC(C=NNC(=O)c1ccc(F)cc1F)=Cc1cccc(F)c1 [Compound 320],> 75
13,CC(C=NNC(=O)c1cc(C(C)C)on1)=Cc1cccc(F)c1 [Compound 237],> 75
14,CCC(C=NNC(=O)c1cccc(F)c1)=Cc1ccccc1 [Compound 200],> 75
15,CCC(C=NNC(=O)c1ccccn1)=Cc1ccc(F)cc1 [Compound 393],> 75
16,COc1ccccc1C(=O)NN=CC(C)=Cc1ccc(F)cc1 [Compound 186],> 75
17,CC(C=NNC(=O)c1ccccc1F)=Cc1ccccc1 [Compound 194],> 75
18,CC(C=NNC(=O)c1sccc1C)=Cc1ccccc1 [Compound 76],> 75
19,CC(C=NNC(=O)c1ccccc1F)=Cc1cccc(F)c1 [Compound 198],> 75
20,CC(C=NNC(=O)c1cc(C(C)C)on1)=Cc1ccccc1 [Compound 235],> 75
21,CC(C=NNC(=O)c1cc(Cl)ccn1)=Cc1ccccc1F [Compound 278],> 75

# Test system: Southern Armyworm (Spodoptera eridania), 2nd Instar Larvae
# Assay: Southern armyworm leaf-dip test, 2nd instar larvae
# Assay type: in vivo
# Conditions: foliar, 120 h, observation at 5 days, read-out: mortality in comparison with untreated controls
# Procedure: 2.1 Southern Armyworm (Spodoptera eridania), 2nd Instar Larvae
# The active compounds were formulated for testing the activity against insects and arachnids as a 10.000 ppm solution in a mixture of 35% acetone and water, which was diluted with water, if needed.
# A Sieva lima bean leaf expanded to 78 cm in length is dipped in the test solution with agitation for 3 seconds and allowed to dry in a hood. The leaf is then placed in a 100×10 mm petri dish containing a damp filter paper on the bottom and ten 2nd instar caterpillars. At 5 days, observations are made of mortality, reduced feeding, or any interference with normal molting.
row,Structure (SMILES),mortality at 300 ppm [%]
1,CC(C=NNC(=O)c1cc(C(C)C)no1)=Cc1ccccc1 [Compound 238],> 80
2,CC(C=NNC(=O)c1cccnc1)=Cc1ccccc1 [Compound 160],> 80
3,COc1ccc(C(=O)NN=CC(C)=Cc2ccccc2)cc1OC [Compound 185],> 80
4,O=C(NN=CC(Cl)=Cc1ccccc1)c1ccc(Cl)s1 [Compound 97],> 80
5,O=C(NN=CC(Br)=Cc1ccccc1)c1ccccc1F [Compound 192],> 80
6,CC(C=NNC(=O)c1ccc(F)cc1)=Cc1ccccc1 [Compound 190],> 80
7,CC(C=NNC(=O)c1cccnc1)=Cc1cccc(C(F)(F)F)c1 [Compound 161],> 80
8,CC(C=NNC(=O)c1ccc(F)cc1F)=Cc1ccccc1 [Compound 318],> 80
9,O=C(NN=CC(Cl)=Cc1ccccc1)c1cccnc1 [Compound 162],> 80
10,CC(C=NNC(=O)c1ccccc1F)=Cc1cccc(F)c1 [Compound 198],> 80
11,CC(C=NNC(=O)c1cnccn1)=Cc1ccccc1 [Compound 177],> 80
12,CC(C=NNC(=O)Cc1ccccc1)=Cc1ccccc1 [Compound 18],> 80

# Test system: Bean Aphid (aphis fabae)
# Assay: Bean aphid test on nasturtium plants
# Assay type: in vivo
# Conditions: 72 h, plant dipped, after 3 days, read-out: mortality in comparison with untreated controls
# Description: 2.4 Bean Aphid (aphis fabae)
# as §1
# Nasturtium plants grown in Metro mix in the 1st leaf-pair stage (variety ‘Mixed Jewle’) were infested with approximately 2-30 laboratory-reared aphids by placing infested cut plants on top of the test plants. The cut plants were removed after 24 hr. Each plant was dipped into the test solution to provide complete coverage of the foliage, stem, protruding seed surface and surrounding cube surface and allowed to dry in the fume hood. The treated plants were kept at about 25° C. with continuous fluorescent light. Aphid mortality was determined after 3 days.
row,Structure (SMILES),mortality at 300 ppm [%]
1,CC(C=NNC(=O)c1ccncc1)=Cc1ccccc1 [Compound 171],> 75
2,CCC(C=NNC(=O)c1ccco1)=Cc1ccccc1 [Compound 126],> 75
3,CC(C=NNC(=O)c1cccs1)=Cc1ccc(F)cc1 [Compound 71],> 75
4,O=C(NN=CC(Cl)=Cc1ccccc1)c1cccs1 [Compound 69],> 75
5,CC(C=NNC(=O)c1ccc2ccccc2c1)=Cc1cccc(F)c1 [Compound 210],> 75
6,CC(C=NNC(=O)c1ccccn1)=Cc1cccc(C)c1 [Compound 253],> 75
7,CC(C=NNC(=O)c1ccccn1)=Cc1cccc(F)c1 [Compound 159],> 75
8,CC(C=NNC(=O)c1cnccc1C(F)(F)F)=Cc1ccc(F)cc1 [Compound 169],> 75
9,CC(C=NNC(=O)c1cc(F)ccc1F)=Cc1ccc(F)cc1 [Compound 202],> 75
10,O=C(NN=CC(Cl)=Cc1ccccc1)c1ccncc1 [Compound 170],> 75
11,CC(C=NNC(=O)c1ccc(O)cc1)=Cc1ccc(F)cc1 [Compound 184],> 75
12,CC(C=NNC(=O)c1ccc(F)cc1)=Cc1ccc(F)cc1 [Compound 191],> 75
13,O=C(NN=CC=Cc1ccccc1)c1ccccc1F [Compound 196],> 75
14,CC(C=NNC(=O)Cc1ccccc1)=Cc1ccccc1 [Compound 18],> 75
15,O=C(NN=CC(Cl)=Cc1ccccc1)c1ccccn1 [Compound 157],> 75
16,CC(C=NNC(=O)c1ccccc1F)=Cc1ccc(F)cc1 [Compound 199],> 75
17,CC(C=NNC(=O)c1cnccc1C(F)(F)F)=Cc1ccccc1 [Compound 168],> 75

# Test system: Cotton Aphid (aphis gossypii)
# Assay: Cotton aphid test on cotton cotyledons
# Assay type: in vivo
# Conditions: 120 h, cotyledons dipped, after 5 days, read-out: mortality in comparison with untreated controls
# Description: 2.2 Cotton Aphid (aphis gossypii)
# as §1
# Cotton plants at the cotyledon stage (one plant per pot) were infested by placing a heavily infested leaf from the main colony on top of each cotyledon. The aphids were allowed to transfer to the host plant overnight, and the leaf used to transfer the aphids was removed. The cotyledons were dipped in the test solution and allowed to dry. After 5 days, mortality counts were made.
row,Structure (SMILES),mortality at 300 ppm [%]
1,CCC(C=NNC(=O)c1ccccn1)=Cc1ccccc1F [Compound 392],> 75
2,CCC(C=NNC(=O)c1ccco1)=Cc1ccccc1 [Compound 126],> 75
3,CC(C=NNC(=O)c1cc(Cl)ccn1)=Cc1cccc(F)c1 [Compound 277],> 75
4,CC(C=NNC(=O)c1ccccc1)=Cc1ccc(F)cc1 [Compound 181],> 75
5,CC(C=NNC(=O)c1c(F)cccc1F)=Cc1cccc(F)c1 [Compound 207],> 75
6,O=C(NN=CC(Cl)=Cc1ccccc1)c1ccco1 [Compound 120],> 75
7,CC(C=NNC(=O)c1cccs1)=Cc1ccc(F)cc1 [Compound 71],> 75
8,CC(C=NNC(=O)c1ccco1)=Cc1ccccc1 [Compound 121],> 75
9,CC(C=NNC(=O)c1ncccc1F)=Cc1ccccc1 [Compound 398],> 75
10,CCC(C=NNC(=O)c1cccc(C)n1)=Cc1cccc(F)c1F [Compound 395],> 75
11,CC(C=NNC(=O)c1ccco1)=Cc1cccc(F)c1 [Compound 131],> 75
12,CC(C=NNC(=O)c1ncccc1F)=Cc1ccc(F)cc1 [Compound 399],> 75
13,CC(C=NNC(=O)c1cc(C(C)C)no1)=Cc1cccc(F)c1 [Compound 240],> 75
14,CC(C=NNC(=O)c1cnccn1)=Cc1ccccc1F [Compound 314],> 75
15,CC(C=NNC(=O)c1ccccn1)=Cc1cccc(F)c1 [Compound 159],> 75
16,CC(C=NNC(=O)c1ccc(F)cc1F)=Cc1ccc(F)cc1 [Compound 319],> 75
17,CC(C=NNC(=O)c1cccs1)=Cc1cccc(F)c1 [Compound 70],> 75
18,O=C(NN=CC=Cc1ccccc1F)c1ccco1 [Compound 130],> 75
19,CC(C=NNC(=O)c1cc(F)ccc1F)=Cc1ccc(F)cc1 [Compound 202],> 75
20,CC(C=NNC(=O)c1cc(F)ccc1F)=Cc1cccc(F)c1 [Compound 203],> 75
21,CC(C=NNC(=O)c1ccccc1F)=Cc1ccccc1 [Compound 194],> 75
22,CC(C=NNC(=O)c1cc(C(C)C)on1)=Cc1ccc(F)cc1 [Compound 236],> 75
23,CCC(C=NNC(=O)c1cccc(C)n1)=Cc1ccccc1F [Compound 394],> 75
24,O=C(NN=CC(Cl)=Cc1ccccc1)c1ccccn1 [Compound 157],> 75

# Test system: Silverleaf Whitefly (bemisia argentifolii)
# Assay: Silverleaf whitefly test on cotton plants
# Assay type: in vivo
# Conditions: 72 h, cotyledons dipped, adults, 3 days after treatment, read-out: mortality compared to untreated controls
# Procedure: 2.5 Silverleaf Whitefly (bemisia argentifolii)
# as §1
# Selected cotton plants were grown to the cotyledon state (one plant per pot). The cotyledons were dipped into the test solution to provide complete coverage of the foliage and placed in a well-vented area to dry. Each pot with treated seedling was placed in a plastic cup and 10 to 12 whitefly adults (approximately 3-5 day old) were introduced. The insects were collected using an aspirator and an 0.6 cm, non-toxic Tygon® tubing (R-3603) connected to a barrier pipette tip. The tip, containing the collected insects, was then gently inserted into the soil containing the treated plant, allowing insects to crawl out of the tip to reach the foliage for feeding. The cups were covered with a reusable screened lid (150 micron mesh polyester screen PeCap from Tetko Inc). Test plants were maintained in the holding room at about 25° C. and 20-40% relative humidity for 3 days avoiding direct exposure to the fluorescent light (24 hour photoperiod) to prevent trapping of heat inside the cup. Mortality was assessed 3 days after treatment of the plants.
row,Structure (SMILES),mortality at 300 ppm [%]
1,CC(C=NNC(=O)c1ccccn1)=Cc1ccc(F)cc1 [Compound 158],> 80
2,CCC(C=NNC(=O)c1ccc(F)cc1)=Cc1ccccc1 [Compound 189],> 80
3,CC(C=NNC(=O)c1cccs1)=Cc1ccccc1 [Compound 50],> 80
4,CCC(C=NNC(=O)c1ccccc1F)=Cc1ccccc1 [Compound 193],> 80
5,COc1ccccc1C(=O)NN=CC(C)=Cc1cccc(F)c1 [Compound 187],> 80
